According to patent US20140212382A1, “PURINE MONOPHOSPHATE PRODRUGS FOR TREATMENT OF VIRAL INFECTIONS” (EMORY UNIVERSITY, priority 2011, published 2014):
Where two headings read alike, the source gives them in different places.

Legend:
[1] = tested on: MtDNA, HepG2 Hepatoma cells; assay: Mitochondrial toxicity in HepG2 cells: mitochondrial DNA content; type: cell-based
Excerpt: A real-time PCR assay to accurately quantify mitochondrial DNA content has been developed (see Stuyver L J, Lostia S, Adams M, Mathew J S, Pai B S, Grier J, Tharnish P M, Choi Y, Chong Y, Choo H, Chu C K, Otto M J, Schinazi R F. Antiviral activities and cellular toxicities of modified 2′,3′-dideoxy-2′,3′-didehydrocytidine analogs. Antimicrob. Agents Chemother. 2002; 46: 3854-60). This assay was used in all studies described in this application that determine the effect of nucleoside analogs on mitochondrial DNA content. In this assay, low-passage-number HepG2 cells were seeded at 5,000 cells/well in collagen-coated 96-well plates. Nucleoside monophosphate analogs were added to the medium to obtain final concentrations of 0 μM, 0.1 μM, 10 μM and 100 μM. On culture day 7, cellular nucleic acids were prepared by using commercially available columns (RNeasy 96 kit; Qiagen). […] The mitochondrial cytochrome c oxidase subunit II (COXII) gene and the β-actin or rRNA gene were amplified from 5 μl of the eluted nucleic acids using a multiplex Q-PCR protocol with suitable primers and probes for both target and reference amplifications. For COXII the following sense, probe and antisense primers are used, respectively: 5′-[…]-3′,5′-tetrachloro-6-carboxyfluorescein-[…]-TAMRA-3′ and 5′-[…]-3′. For exon 3 of the β-actin gene (GenBank accession number E01094) the sense, probe, and antisense primers are 5′-[…]-3′,5′-6-[…]-3′ and 5′-[…]-3′, respectively. The primers and probes for the rRNA gene are commercially available from Applied Biosystems. Since equal amplification efficiencies were obtained for all genes, the comparative CT method was used to investigate potential inhibition of mitochondrial DNA synthesis. The comparative CT method uses arithmetic formulas in which the amount of target (COXII gene) is normalized to the amount of an endogenous reference (the β-actin or rRNA gene) and is relative to a calibrator (a control with no drug at day 7). The arithmetic formula for this approach is given by 2-ΔΔCT, where ΔΔCT is (CT for average target test sample−CT for target control)−(CT for average reference test−CT for reference control) (see Johnson M R, K Wang, J B Smith, M J Heslin, R B Diasio. Quantitation of dihydropyrimidine dehydrogenase expression by real-time reverse transcription polymerase chain reaction. Anal. Biochem. 2000; 278:175-184). A decrease in mitochondrial DNA content in cells grown in the presence of drug would indicate mitochondrial toxicity.
(§1) The effect of compounds 8b-up, 12, and 8a on nuclear or mitochondrial DNA, or lactic acid production, in HepG2 Hepatoma cells was analyzed over a 14 day period. The procedure outlined in section (i) above was used for this analysis.

[2] = tested on: nuclear DNA, HepG2 Hepatoma cells; assay: Mitochondrial toxicity in HepG2 cells: nuclear DNA content; type: cell-based
Procedure: This assay was used in all studies described in this application that determine the effect of nucleoside analogs on mitochondrial DNA content. In this assay, low-passage-number HepG2 cells were seeded at 5,000 cells/well in collagen-coated 96-well plates. […] On culture day 7, cellular nucleic acids were prepared by using commercially available columns (RNeasy 96 kit; Qiagen). […] The mitochondrial cytochrome c oxidase subunit II (COXII) gene and the β-actin or rRNA gene were amplified from 5 μl of the eluted nucleic acids using a multiplex Q-PCR protocol with suitable primers and probes for both target and reference amplifications. […] For exon 3 of the β-actin gene (GenBank accession number E01094) the sense, probe, and antisense primers are 5′-[…]-3′,5′-6-[…]-3′ and 5′-[…]-3′, respectively. The primers and probes for the rRNA gene are commercially available from Applied Biosystems. […] The comparative CT method uses arithmetic formulas in which the amount of target (COXII gene) is normalized to the amount of an endogenous reference (the β-actin or rRNA gene) and is relative to a calibrator (a control with no drug at day 7). The arithmetic formula for this approach is given by 2-ΔΔCT, where ΔΔCT is (CT for average target test sample−CT for target control)−(CT for average reference test−CT for reference control) (see Johnson M R, K Wang, J B Smith, M J Heslin, R B Diasio. Quantitation of dihydropyrimidine dehydrogenase expression by real-time reverse transcription polymerase chain reaction. Anal. Biochem. 2000; 278:175-184). A decrease in mitochondrial DNA content in cells grown in the presence of drug would indicate mitochondrial toxicity.
as §1

[3] = tested on: HCV Replicon RNA in Huh 7 Clone B cells; assay: HCV replicon assay; type: cell-based; settings: Hepatitis C virus
Procedure: (§2) Huh 7 Clone B cells containing HCV Replicon RNA were seeded in a 96-well plate at 5000 cells/well, and the compounds tested at 10 μM in triplicate immediately after seeding. Following five days incubation (37° C., 5% CO2), total cellular RNA was isolated using the versaGene RNA purification kit from Gentra. Replicon RNA and an internal control (TaqMan rRNA control reagents, Applied Biosystems) were amplified in a single step multiplex Real Time RT-PCR Assay. The antiviral effectiveness of the compounds was calculated by subtracting the threshold RT-PCR cycle of the test compound from the threshold RT-PCR cycle of the no-drug control (ΔCt HCV). A ΔCt of 3.3 equals a 1-log reduction (equal to 90% less starting material) in Replicon RNA levels. The cytotoxicity of the compounds was also calculated using the ΔCt rRNA values. (2′-C-Me-C) was used as the control. To determine EC90 and IC50 values^2, ΔCt: values were first converted into a fraction of the starting material,^3 and then were used to calculate the % inhibition. The data on three compounds (Compound 12, Compound 8a, and compound 8b-up) is shown below in Table 3.

[4] = Cytotoxicity in HCV replicon assay (ΔCt rRNA); type: cell-based; settings: human, HCV Replicon (Huh7)
Procedure: as §2

PBM cells = assay: Cellular pharmacology in PBM cells (LC-MS/MS of intracellular metabolites); type: in vitro ADME; settings: 50 μM, 4 h, 37° C.
Procedure: Test compounds are incubated in PBM cells at 50 μM for 4 h at 37° C. Then the drug containing media is removed and the PBM cells are washed twice with PBS to remove extracellular drugs. The intracellular drugs are extracted from 10×10^6 PBM cells using 1 mL 70% ice-cold methanol (containing 10 nM of the internal standard ddATP). Following precipitation, the samples are maintained at room temperature for 15 min followed by vortexing for 30 sec, and then stored 12 h at −20° C. The supernatant is then evaporated to dryness. Dry samples would be stored at −20° C. until LC-MS/MS analysis. Prior to analysis, each sample is reconstituted in 100 μL mobile phase A, and centrifuged at 20,000 g to remove insoluble particulates.
Gradient separation is performed on a Hypersil GOLD column (100×1.0 mm, 3 μm particle size; Thermo Scientific, Waltham, Mass., USA). Mobile phase A consists of 2 mM ammonium phosphate and 3 mM hexylamine. Acetonitrile is increased from 10 to 80% in 15 min, and kept at 80% for 3 min. Equilibration at 10% acetonitrile lasts 15 min. The total run time is 33 min. The flow rate is maintained at 50 μL/min and a 10 μL injection is used. The autosampler and the column compartment are typically maintained at 4.5 and 30° C., respectively.
The first 3.5 min of the analysis is diverted to waste. The mass spectrometer is operated in positive ionization mode with a spray voltage of 3.2 kV.

Huh7 cells = assay: Cellular pharmacology in Huh7 cells (LC/MS of nucleotides formed); type: in vitro ADME; settings: 50 μM, 4 hr
Procedure: Similar to the method outlined for HepG2 cellular pharmacology, compounds are incubated in Huh-7 cells for 4 hr at the concentration of 50 μM in triplicate. […] Ice-cold 70% methanol can be used as the extraction solvent. ddATP (10 nM) can be used as the internal standard.

[5] = Huh-7, 120 h, HCV Replicon (Huh7), five days incubation, read-out: EC50
[6] = Huh 7 Clone B cells containing HCV replicon RNA
[7] = 1 μM, HepG2 Hepatoma cells, 14 day assay
[8] = 10 μM, HepG2 Hepatoma cells, 14 day assay
[9] = 50 μM, HepG2 Hepatoma cells, 14 day assay

CC1(O)C(O)[C@@H](CO)O[C@H]1n1cnc2c(N)nc(N)nc21 (stereo partly drawn) [drawing 50]
% Inhibition MtDNA ([1]; human, 14 day, 1 μM): < 1%
% Inhibition MtDNA ([1]; human, 14 day, 10 μM): < 1%
% Inhibition MtDNA ([1]; human, 14 day, 50 μM): < 1%
% Inhibition nuclear DNA ([2]; human, 14 day, 1 μM): 22%
% Inhibition nuclear DNA ([2]; human, 14 day, 10 μM): 46%
% Inhibition nuclear DNA ([2]; human, 14 day, 50 μM): 21%

CC(C)OC(=O)CCNC(=O)[C@@H]1OP(=O)(OC[C@H]2O[C@@H](n3cnc4c(N)nc(N)nc43)C(C)(O)C2O)OCC1(C)C (stereo partly drawn)
EC50 [3, 5]: > 10 µM
EC50 ([3]; Huh-7, HCV Replicon (Huh7), second line printed as EC50 in the entry, read-out: EC50): > 10 µM
CC50 at 5 day [4, 6]: > 10 µM

Nc1nc(N)c2ncn([C@H]3CO[C@@H](CO)O3)c2n1 [DAPD]
intracellular level of DAPD (PBM cells): Low levels
intracellular level of DAPD-TP / phosphorylated forms of DAPD (PBM cells): no phosphorylated forms of DAPD were detected
intracellular level of DXG-TP (PBM cells): high levels

CCOC(=O)CCc1ccccc1OP(=O)(N[C@H](C)C(=O)OCC)OC[C@H]1O[C@@H](n2cnc3c(N)nc(N)nc32)C(C)(O)C1O (stereo partly drawn) [drawing 49]
% Inhibition MtDNA [1, 7]: 24%
% Inhibition MtDNA [1, 8]: 34%
% Inhibition MtDNA [1, 9]: 43%
% Inhibition nuclear DNA [2, 7]: 30%
% Inhibition nuclear DNA [2, 8]: 16%
% Inhibition nuclear DNA [2, 9]: 10%

CCOC(=O)[C@H](C)NP(=O)(OCC1O[C@@H](n2cnc3c(N)nc(N)nc32)C(C)(O)C1O)Oc1ccccc1 (stereo in doubt) [Compound 8a, (2S)-ethyl 2-((((2S,3R,4R,5R)-5-(2,6-diamino-9H-purin-9-yl)-3,4-dihydroxy-4-methyltetrahydrofuran-2-yl)methoxy)(phenoxy)phosphorylamino)propanoate]
effect on nuclear or mitochondrial DNA or lactic acid production ([1]; up to 50 μM, HepG2 Hepatoma cells, 14 day assay, summary also covers nuclear DNA and lactic acid): no significant effect
intracellular guanine analog triphosphate (Huh7 cells): also detected
intracellular level of 2,6-diamino-2′-C-Me purine triphosphate (Huh7 cells): unexpectedly high levels

CCOC(=O)CCc1ccccc1OP(=O)(N[C@@H](C)C(=O)OCC)OC[C@H]1O[C@@H](n2cnc3c(N)nc(N)nc32)C(C)(F)C1O (stereo partly drawn)
EC50 ([3]; Huh-7, 120 h): 0.7 µM
EC90 ([3]; Huh-7, 120 h): 2.9 µM
CC50 at 5 day [4]: > 10 µM

CCOC(=O)CCc1ccccc1O[P@](=O)(N[C@@H](C)C(=O)OCC)OC[C@H]1O[C@@H](n2cnc3c(N)nc(N)nc32)C(C)(O)C1O (stereo partly drawn)
EC50 ([3]; Huh-7, 120 h): 2.3 µM
EC90 ([3]; Huh-7, 120 h): 7.7 µM
CC50 at 5 day [4]: > 3 µM

CCOC(=O)[C@H](C)NP(=O)(OC[C@@H]1OC[C@H](n2cnc3c(N)nc(N)nc32)O1)Oc1ccccc1 (stereo partly drawn) [RS-864]
intracellular level of DAPD (PBM cells): low levels
intracellular level of DAPD-TP / phosphorylated forms of DAPD (PBM cells): very high levels
intracellular level of DXG-TP (PBM cells): low levels
ratio of DXG-TP (6-OH) to DAPD-TP (6-NH2) (PBM cells; LC/MS/MS): 2 to 98

CCOC(=O)[C@H](C)NP(=O)(OC[C@H]1O[C@@H](n2cnc3c(N)nc(N)nc32)C(C)(O)C1O)Oc1ccccc1 (stereo partly drawn) [drawing 56]
EC50 ([3]; Huh-7, 120 h): 1.3 µM
EC90 ([3]; Huh-7, 120 h): 4.9 µM
CC50 at 5 day [4]: > 10 µM

CC1(O)C(O)[C@@H](CO)O[C@H]1n1cnc2c(N)nc(N)nc21 (stereo partly drawn) [drawing 55]
EC50 [3, 5]: 3.7 µM
EC90 ([3]; Huh-7, 120 h, HCV Replicon (Huh7), five days incubation, read-out: EC90): 11 µM
CC50 at 5 day [4, 6]: > 10 µM

CCOC(=O)CCc1ccccc1O[P@@](=O)(N[C@@H](C)C(=O)OCC)OC[C@H]1O[C@@H](n2cnc3c(N)nc(N)nc32)C(C)(O)C1O (stereo partly drawn)
EC50 ([3]; Huh-7, 120 h): 0.2 µM
EC90 ([3]; Huh-7, 120 h): 0.7 µM
CC50 at 5 day [4]: > 10 µM

CC1(O)C(O)[C@@H](CO)O[C@H]1n1cnc2c(N)nc(N)nc21 (stereo partly drawn) [Compound 12, 2,6-diamino-2′-C-Me purine nucleoside]
intracellular guanine analog triphosphate (Huh7 cells): major triphosphate detected
intracellular level of 2,6-diamino-2′-C-Me purine triphosphate (Huh7 cells): extremely low levels

CCOC(=O)[C@H](C)NP(=O)(OC[C@H]1O[C@@H](n2cnc3c(N)nc(N)nc32)C(C)(O)C1O)Oc1ccccc1 (stereo partly drawn) [drawing 51]
% Inhibition MtDNA [1, 7]: < 1%
% Inhibition MtDNA [1, 8]: 5.4%
% Inhibition MtDNA [1, 9]: < 1%
% Inhibition nuclear DNA [2, 7]: 4.0%
% Inhibition nuclear DNA [2, 8]: 20%
% Inhibition nuclear DNA [2, 9]: < 1%
